Assay results reported in patent publication US12604895B2, “Pesticidally active cyclic amine compounds” (SYNGENTA CROP PROTECTION AG, priority 2020, dated 2026).

Assays:
Type in all cases: in vivo
[1] = test system: Tetranychus urticae (Two-Spotted Spider Mite); experiment: Example B5: Tetranychus urticae (Two-Spotted Spider Mite), feeding/contact activity; details: foliar, 192 h, application rate of 200 ppm, mixed population (mobile stages) on sprayed bean leaf discs, 8 days after infestation
Method: Example B5: Tetranychus urticae (Two-Spotted Spider Mite): Feeding/Contact Activity
Bean leaf discs on agar in 24-well microtiter plates were sprayed with aqueous test solutions prepared from 10′000 ppm DMSO stock solutions. After drying the leaf discs were infested with a mite population of mixed ages. The samples were assessed for mortality on mixed population (mobile stages) 8 days after infestation.

[2] = test system: Plutella xylostella (Diamond Back Moth); experiment: Example B3: Plutella xylostella (Diamond Back Moth), artificial diet; details: 192 h, application rate of 200 ppm, eggs, treated artificial diet, 8 days after infestation, read-out: control in at least one of the two categories (mortality or growth inhibition)
Method: Example B3: Plutella xylostella (Diamond Back Moth)
24-well microtiter plates with artificial diet were treated with aqueous test solutions prepared from 10′000 ppm DMSO stock solutions by pipetting. After drying, Plutella eggs were pipetted through a plastic stencil onto a gel blotting paper and the plate was closed with it. The samples were assessed for mortality and growth inhibition in comparison to untreated samples 8 days after infestation. The following compounds gave an effect of at least 80% control in at least one of the two categories (mortality or growth inhibition) at an application rate of 200 ppm: P1.2, P1.15, P1.51, P2.1, P2.2, P2.5, P2.10, P2.15, P2.16, P5.1, P5.2, P5.3, P7.1, P8.1

[3] = test system: Euschistus heros (Neotropical Brown Stink Bug); experiment: Example B2: Euschistus heros (Neotropical Brown Stink Bug), sprayed soybean leaves; details: 120 h, application rate of 200 ppm, N2 nymphs on sprayed soybean leaves, 5 days after infestation, read-out: control in at least one of the two categories (mortality or growth inhibition)
Method: Example B2: Euschistus heros (Neotropical Brown Stink Bug)
Soybean leaves on agar in 24-well microtiter plates were sprayed with aqueous test solutions prepared from 10′000 ppm DMSO stock solutions. After drying the leaves were infested with N2 nymphs. The samples were assessed for mortality and growth inhibition in comparison to untreated samples 5 days after infestation.
The following compounds gave an effect of at least 80% control in at least one of the two categories (mortality or growth inhibition) at an application rate of 200 ppm: P2.1., P8.1

[4] = test system: Diabrotica balteata (Corn Root Worm); experiment: Example B1: Diabrotica balteata (Corn Root Worm), sprayed maize sprouts; details: 96 h, application rate of 200 ppm, L2 larvae on sprayed maize sprouts, 4 days after infestation, read-out: control in at least one of the two categories (mortality or growth inhibition)
Method: Example B1: Diabrotica balteata (Corn Root Worm)
Maize sprouts placed onto an agar layer in 24-well microtiter plates were treated with aqueous test solutions prepared from 10′000 ppm DMSO stock solutions by spraying. After drying, the plates were infested with L2 larvae (6 to 10 per well). The samples were assessed for mortality and growth inhibition in comparison to untreated samples 4 days after infestation.
The following compounds gave an effect of at least 80% control in at least one of the two categories (mortality or growth inhibition) at an application rate of 200 ppm: P1.2, P2.1, P2.2, P2.5, P2-17, P3.4, P7.1, P8.1

Cc1nc(C2CCN(C(=O)c3cc(C#N)c(-c4ccc(C(F)(F)F)cc4)cc3C(F)(F)F)CC2)no1 [Compound P1.1, 5-[4-(5-Methyl-1,2,4-oxadiazol-3-yl)piperidine-1-carbonyl]-4-(trifluoromethyl)-2-[4-(trifluoromethyl)phenyl]benzonitrile]
mortality at 200 ppm [1]: ≥ 80%

CCOc1cc(-c2ccc(C(F)(F)F)cc2)c(C#N)cc1C(=O)N1CCC(CSCC)CC1 [Compound P1.46, 4-Ethoxy-5-[4-(ethylsulfanylmethyl)piperidine-1-carbonyl]-2-[4-(trifluoromethyl)phenyl]-benzonitrile]
mortality at 200 ppm [1]: ≥ 80%

N#Cc1cc(C(=O)N2CCN(c3ncc(Cl)cc3Cl)CC2)c(C(F)(F)F)cc1-c1ccc(C(F)(F)F)cc1 [Compound P2.1, 5-[4-(3,5-Dichloro-2-pyridyl)piperazine-1-carbonyl]-4-(trifluoromethyl)-2-[4-(trifluoromethyl)phenyl]benzonitrile]
mortality at 200 ppm [1]: ≥ 80% | percent control (mortality or growth inhibition) at 200 ppm [2]: ≥ 80% | percent control (mortality or growth inhibition) at 200 ppm [3]: ≥ 80% | percent control (mortality or growth inhibition) at 200 ppm [4]: ≥ 80%

CCOc1cc(-c2ccc(C(F)(F)F)cc2)c(C#N)cc1C(=O)N1CCN(c2ncc(Cl)cc2Cl)CC1 [Compound P2.5, 5-[4-(3,5-Dichloro-2-pyridyl)piperazine-1-carbonyl]-4-ethoxy-2-[4-(trifluoromethyl)-phenyl]-benzonitrile]
mortality at 200 ppm [1]: ≥ 80% | percent control (mortality or growth inhibition) at 200 ppm [2]: ≥ 80% | percent control (mortality or growth inhibition) at 200 ppm [4]: ≥ 80%

CCC[S+]([O-])CC1CN(C(=O)c2cc(C#N)c(-c3ccc(C(F)(F)F)cc3)cc2C(F)(F)F)C1 (stereo not shown) [Compound P3.7, 5-[3-(Propylsulfinylmethyl)azetidine-1-carbonyl]-4-(trifluoromethyl)-2-[4-(trifluoromethyl)phenyl]-benzonitrile]
mortality at 200 ppm [1]: ≥ 80%

CCCSCC1CN(C(=O)c2cc(C#N)c(-c3ccc(C(F)(F)F)cc3)cc2C(F)(F)F)C1 [Compound P3.9, 5-[3-(propylsulfanylmethyl)azetidine-1-carbonyl]-4-(trifluoromethyl)-2-[4-(trifluoromethyl)-phenyl]benzonitrile]
mortality at 200 ppm [1]: ≥ 80%

Cc1nc(C2CCN(C(=O)c3cc(C#N)c(-c4ccc(C(F)(F)F)cc4)c(C#N)c3C)CC2)no1 [Compound P6.1]
mortality at 200 ppm [1]: ≥ 80%

NC(=S)c1cc(C(=O)N2CCN(c3ncc(Cl)cc3Cl)CC2)c(C(F)(F)F)cc1-c1ccc(C(F)(F)F)cc1 [Compound P8.1, 5-[4-(3,5-Dichloro-2-pyridyl)piperazine-1-carbonyl]-4-(trifluoromethyl)-2-[4-(trifluoromethyl)phenyl]benzenecarbothioamide]
mortality at 200 ppm [1]: ≥ 80% | percent control (mortality or growth inhibition) at 200 ppm [2]: ≥ 80% | percent control (mortality or growth inhibition) at 200 ppm [3]: ≥ 80% | percent control (mortality or growth inhibition) at 200 ppm [4]: ≥ 80%
